The test system of the test is B6C3F1 mice, Lewis lung carcinoma iv, survival T/C. The test can be described thus: NCI In Vivo Anticancer Drug Screen. Data for tumor model Lewis Lung Carcinoma (intravenous) in B6C3F1 mice. As to conditions: endpoint: median survival time, schedule: Q01DX009 (ip), higher = longer survival. The gist of the method: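 Tumors were transplanted into mice, which were then dosed with compound or vehicle. Survival was recorded in each group, and the treated figure was divided by the control figure.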

[1] abbreviates: dose: 6.25 mg/kg/injection, vehicle: saline with Tween-80.
[2] abbreviates: dose: 12.5 mg/kg/injection, vehicle: saline with Tween-80.
Where [3] appears, read: dose: 25.0 mg/kg/injection, vehicle: saline with Tween-80.
Where [4] appears, read: dose: 50.0 mg/kg/injection, vehicle: saline with Tween-80.
Where [5] appears, read: dose: 100.0 mg/kg/injection, vehicle: saline with Tween-80.
[6] abbreviates: dose: 200.0 mg/kg/injection, vehicle: saline with Tween-80.
Setting [7] is: dose: 50.0 mg/kg/injection, vehicle: Klucel (hydroxypropylcellulose) (HPC).
[8] abbreviates: dose: 100.0 mg/kg/injection, vehicle: Klucel (hydroxypropylcellulose) (HPC).
Where [9] appears, read: dose: 200.0 mg/kg/injection, vehicle: Klucel (hydroxypropylcellulose) (HPC).
Setting [10] is: dose: 12.5 mg/kg/injection, vehicle: Klucel (hydroxypropylcellulose) (HPC).
Setting [11] is: dose: 25.0 mg/kg/injection, vehicle: Klucel (hydroxypropylcellulose) (HPC).
[12] abbreviates: dose: 12.5 mg/kg/injection, vehicle: saline.
Setting [13] is: dose: 25.0 mg/kg/injection, vehicle: saline.
[14] abbreviates: dose: 50.0 mg/kg/injection, vehicle: saline.

Toxic doses and inconclusive results are not listed.

Consider `C=C(C)C(=NC(C)(C)C)Nc1ccccc1`, for which the T/C runs as follows: under setting [1], 99 % of control; under setting [2], 99 % of control; under setting [3], 90 % of control; under setting [4], 86 % of control; under setting [5], 99 % of control; under setting [6], 90 % of control.
On to `CC1=CC2C(O)(CC(CO)=CC3C4C(C)(C)C4(OC(=O)c4ccccc4)C(OC(=O)c4ccccc4)C(C)C32O)C1=O` (stereo unspecified), for which the T/C is 103 % of control (dose: 0.12 mg/kg/injection, vehicle: saline with Tween-80); 107 % of control (dose: 0.25 mg/kg/injection, vehicle: saline with Tween-80); 95 % of control (dose: 0.5 mg/kg/injection, vehicle: saline with Tween-80); 108 % of control (dose: 1.0 mg/kg/injection, vehicle: saline with Tween-80); 99 % of control (dose: 2.0 mg/kg/injection, vehicle: saline with Tween-80).
Regarding `CC(C)=CC(=O)OC1C2C(C)=CC(=O)C(O)C2(C)C2C3(O)OCC24C(CC(=O)OC14)C(C)C3O` (stereo unspecified), the T/C runs as follows: (dose: 0.25 mg/kg/injection, vehicle: distilled water + Tween-80) 107 % of control; (dose: 0.5 mg/kg/injection, vehicle: distilled water + Tween-80) 98 % of control; (dose: 1.0 mg/kg/injection, vehicle: distilled water + Tween-80) 102 % of control; (dose: 2.0 mg/kg/injection, vehicle: distilled water + Tween-80) 98 % of control.
As to `COC(=O)Nc1cn2ccc(Sc3ccccc3)cc2n1`, the T/C reads like this: under setting [7], 101 % of control; under setting [8], 106 % of control; under setting [9], 101 % of control.
In the case of `CO[C@H](/C(C)=C/C=C/C(C)=C/c1coc(C)n1)[C@H](C)[C@H]1C[C@@H](O)[C@@]2(C)O[C@H]2/C=C/[C@@H](C)[C@@H]2C[C@@H](CC(=O)O2)C[C@H]2O[C@@H]2C(=O)O1`, the T/C was 96 % of control (dose: 20.0 micrograms/kg/injection, vehicle: Klucel (hydroxypropylcellulose) (HPC)); 103 % of control (dose: 40.0 micrograms/kg/injection, vehicle: Klucel (hydroxypropylcellulose) (HPC)); 105 % of control (dose: 80.0 micrograms/kg/injection, vehicle: Klucel (hydroxypropylcellulose) (HPC)).
With `CN(C)N=Nc1ccccc1`, the T/C is, setting by setting: under setting [10], 108 % of control; under setting [11], 115 % of control.
Consider `Cc1ccc(N)c(N)c1`, for which the T/C under setting [3] was 96 % of control, the T/C under setting [4] is 98 % of control, the T/C under setting [5] is 108 % of control and the T/C under setting [6] was 103 % of control.
As to `COc1cccc2c1C(=O)c1c(O)c3c(c(O)c1C2=O)C[C@@](O)(C(=O)CO)C[C@@H]3OC1CC(OC(C)=O)C(OC(C)=O)C(C)O1` (stereo partly specified), the T/C runs as follows: (dose: 0.78 mg/kg/injection, vehicle: water) 91 % of control; (dose: 1.5 mg/kg/injection, vehicle: water) 119 % of control; (dose: 1.56 mg/kg/injection, vehicle: distilled water + Tween-80) 106 % of control; (dose: 1.56 mg/kg/injection, vehicle: water) 103 % of control; (dose: 3.0 mg/kg/injection, vehicle: water) 111 % of control; (dose: 3.12 mg/kg/injection, vehicle: distilled water + Tween-80) 113 % of control. For the same compound, the T/C is 111 % of control (dose: 3.12 mg/kg/injection, vehicle: water); 266 % of control (dose: 12.0 mg/kg/injection, vehicle: water); 285 % of control (dose: 12.5 mg/kg/injection, vehicle: distilled water + Tween-80).
Turning to `CCCCNC(C)[C@]1(O)Cc2c(O)c3c(c(O)c2[C@@H](OC2CC(N)C(O)C(C)O2)C1)C(=O)c1c(OC)cccc1C3=O` (stereo partly specified), the T/C (dose: 0.62 mg/kg/injection, vehicle: water) is 107 % of control; the T/C (dose: 1.25 mg/kg/injection, vehicle: water) is 114 % of control; the T/C (dose: 2.5 mg/kg/injection, vehicle: water) was 103 % of control; the T/C (dose: 5.0 mg/kg/injection, vehicle: water) is 115 % of control.
As for `O=NN(CCCl)C(=O)NCCCl`, the T/C (dose: 1.5 mg/kg/injection, vehicle: Klucel (hydroxypropylcellulose) (HPC)) was 105 % of control; the T/C (dose: 1.5 mg/kg/injection, vehicle: saline + alcohol) was 107 % of control; the T/C (dose: 3.0 mg/kg/injection, vehicle: Klucel (hydroxypropylcellulose) (HPC)) is 120 % of control; the T/C (dose: 3.0 mg/kg/injection, vehicle: saline + alcohol) was 121 % of control; the T/C (dose: 5.0 mg/kg/injection, vehicle: saline with Tween-80) was 303 % of control; the T/C (dose: 6.0 mg/kg/injection, vehicle: saline + alcohol) is 152 % of control. Further, the T/C is 181 % of control (dose: 10.0 mg/kg/injection, vehicle: saline with Tween-80); 114 % of control (dose: 12.0 mg/kg/injection, vehicle: Klucel (hydroxypropylcellulose) (HPC)); 180 % of control (dose: 12.0 mg/kg/injection, vehicle: saline + alcohol).
As for `[CH3][Sn]([CH3])([Cl])[S]CCN`, the T/C is, setting by setting: (dose: 3.12 mg/kg/injection, vehicle: saline) 99 % of control; (dose: 6.25 mg/kg/injection, vehicle: saline) 105 % of control; under setting [12], 99 % of control; under setting [13], 100 % of control; under setting [14], 96 % of control.
Regarding `CCCCCC#CC1OC12CCCCC2` (stereo unspecified), the T/C is, setting by setting: under setting [4], 102 % of control; under setting [5], 100 % of control; under setting [6], 88 % of control; (dose: 400.0 mg/kg/injection, vehicle: saline with Tween-80) 91 % of control.
For `Oc1ccc(CCl)c2cccnc12`, the T/C reads like this: under setting [12], 105 % of control; under setting [13], 103 % of control; under setting [14], 103 % of control; (dose: 100.0 mg/kg/injection, vehicle: saline) 98 % of control.
For the compound `C[C@]12CCC(=O)C=C1CC[C@@H]1[C@@H]2[C@@H](O)C[C@@]2(C)[C@H]1CC[C@]2(O)C(=O)CO`, the T/C under setting [10] is 110 % of control; the T/C under setting [11] is 107 % of control; the T/C under setting [7] is 97 % of control; the T/C under setting [8] was 106 % of control; the T/C under setting [9] is 100 % of control.
`CCCCCCCCCCCCSC1=C(Cl)C(=O)C(OC)=C(OC)C1=O`: the T/C (dose: 3.12 mg/kg/injection, vehicle: saline with Tween-80) is 99 % of control; the T/C under setting [1] was 94 % of control; the T/C under setting [2] is 99 % of control; the T/C under setting [3] was 94 % of control; the T/C under setting [4] was 96 % of control.
For the compound `NC(=S)c1cn(C2OC(CO)C(O)C2O)c2ncnc(N)c12` (stereo unspecified), the T/C was 100 % of control (dose: 0.62 mg/kg/injection, vehicle: suspension in saline); 90 % of control (dose: 1.25 mg/kg/injection, vehicle: suspension in saline); 99 % of control (dose: 2.5 mg/kg/injection, vehicle: suspension in saline); 94 % of control (dose: 5.0 mg/kg/injection, vehicle: suspension in saline).

The values are drawn from PubChem BioAssay AID276 (DTP/NCI, 2004).
